The values that follow come from patent US20100068198A1, “TARGETING OF ALPHA-1 OR ALPHA-3 SUBUNIT OF NA+, K+-ATPASE IN THE TREATMENT OF PROLIFERATIVE DISEASES” (priority 2006, published 2010).

Structures are written as SMILES. Read-outs that look alike come from different tables or passages of the source.

Assay [1] concerns the target T1, α1β1 Na+/K+-ATPase (Rattus norvegicus, UniProt P06685).
T1 construct: made in house; host or cells: Sf-9 insect cells, baculovirus
Description: Na+,K+-ATPase activity assay on homogenates of Sf-9 cells expressing α1β1 isozyme (32Pi release from ATP). The assay is classed as biochemical.
Description: Samples were preincubated with the inhibitor for 10 min. The assay was started by the addition of ATP with 0.2 μCi γ[32P]-ATP (2 mM final concentration). […] Released 32Pi-Pi was converted into phosphomolybdate and extracted with isobutanol. The radioactivity in 150 μl of the organic phase was measured by liquid scintillation counting.

In assay [2] the target is T2, α2β1 Na+/K+-ATPase (Rattus norvegicus, UniProt P06686).
T2 construct: made in house; host or cells: Sf-9 insect cells, baculovirus
Description: Na+,K+-ATPase activity assay on homogenates of Sf-9 cells expressing α2β1 isozyme (32Pi release from ATP). Type of assay: biochemical.

For assay [3], the target named is T3, α3β1 Na+/K+-ATPase (Rattus norvegicus, UniProt P06687).
T3 construct: made in house; host or cells: Sf-9 insect cells, baculovirus
Kind of assay: Na+,K+-ATPase activity assay on homogenates of Sf-9 cells expressing α3β1 isozyme (32Pi release from ATP). The assay is classed as biochemical.

The subject of assay [4] is α1β1, α2β1 and α3β1 Na,K-ATPases. Kind of assay: Na+,K+-ATPase activity assay on Sf-9 homogenates, statements for all isozymes together. Type of assay: biochemical. Here is the method: Na^+,K^+-ATPase activity was assayed on homogenates of Sf-9 cells expressing the α1β1, α2β1 and α3β1 isozymes. The initial rate of release of ^32Pi from γ[^32P]-ATP was measured. The ATPase activity of 30-40 μg total protein samples was measured in a final volume of 0.25 ml in a medium containing 120 mM NaCl, 30 mM KCl, 3 mM MgCl2, 0.2 mM EGTA, 30 mM Tris-HCl (pH 7.4)±particular concentrations of a tested agent, e.g., herein compound 2.
Samples were preincubated with the inhibitor for 10 min. The assay was started by the addition of ATP with 0.2 μCi γ[32P]-ATP (2 mM final concentration). Following 30 min incubation at 37° C. the tubes were placed on ice, and the reaction was terminated by the addition of 25 μL of 55% trichloroacetic acid. Released 32Pi-Pi was converted into phosphomolybdate and extracted with isobutanol. The radioactivity in 150 μl of the organic phase was measured by liquid scintillation counting. […] The specific activity was therefore determined as the difference in ATP hydrolysis in the presence and absence of 0.0001 M compound 2.
To determine the effect of compound 2 on the activity of the Na^+/K^+-ATPase and its various isozymes, α1β1, α2β1 and α3β1 sodium pump complexes were produced using the baculovirus expression system and dose-response curves to the compound were performed. […]

Assay [5] deals with four human NSCLC cell lines. Type of assay: cell-based. The following applies: three days, FIG. 6A.
Assay [6] deals with C6 rat glioma, MXT mouse mammary carcinoma and mouse B16F10 melanoma cell lines. Description: In vitro anti-tumour effect on three rodent cancer cell lines. Type of assay: cell-based. The following applies: high doses (10 μM), FIG. 6B. From the text: We also made use of three murine cell lines, i.e., three cancer cell lines including the C6 rat glioma, the MXT mouse mammary adenocarcinomas and the mouse B16F10 melanoma models.
Then, we made use of three rodent cancer cell lines, i.e. the C6 rat glioma, the MXT mouse […] mammary carcinoma and the mouse B16F10 melanoma models.

In assay [7] the target is T1, α1β1 Na+/K+-ATPase. The following applies: Table 4A, from Blanco et al. 2005; read-out: inhibition constant (Ki) α1β1; cited from earlier work.

In general, Ki refers to a measure of affinity in units of concentration, obtained from inhibition or displacement. Regarding `C[C@@H]1CC2(NC(=O)CS2)[C@]2(O)O[C@@H]3C[C@]4(CO)C5CC[C@]6(C)[C@@H](C7=CC(=O)OC7)CC[C@]6(O)[C@@H]5CC[C@H]4C[C@H]3O[C@@H]2O1` (stereo partly shown) [Compound 2], the Ki stood at 160 ± 70 nM in assay [1] (Sf-9 expressed α1β1, Table 4A, read-out: inhibition constant (Ki) α1β1); 15 ± 8 nM in assay [2]; 3.2 ± 3.4 nM in assay [3]. For the same molecule, in assay [1] (ratio of Ki versus ouabain), the “potency of α1β1 inhibition relative to ouabain” value is on record as “approximately 100 times”. In assay [4] (0.0001 M compound 2), the “ATPase activity at 0.0001 M compound versus 0.001 M ouabain” value is “comparable to that obtained with 0.001 M ouabain”. In addition, in assay [4] (all α1β1, α2β1 and α3β1), the “effect on Na,K-ATPase isozymes” value is given as “inhibitory effect”. In addition, the “impairment of global growth (rank among four cardenolides)” value (“impairment of global growth” for short) in assay [5] is “strongest”. The “anti-tumor effects in rodent cancer cell lines” value in assay [6] was “displays actual anti-tumor effects”.

As to `C[C@H]1O[C@@H](O[C@H]2[C@@H](O)C[C@H](O[C@H]3[C@@H](O)C[C@H](O[C@H]4CC[C@@]5(C)[C@H](CC[C@@H]6[C@@H]5C[C@@H](O)[C@]5(C)[C@@H](C7=CC(=O)OC7)CC[C@]65O)C4)O[C@@H]3C)O[C@@H]2C)C[C@H](O)[C@@H]1O` [Digoxin, reference compound], the Ki in assay [1] was found to be 930 ± 410 nM. Besides, in assay [5], the “impairment of global growth” value is “weakest”.

Turning to `C[C@@H]1O[C@@H](O[C@H]2C[C@@H](O)[C@]3(CO)[C@H]4[C@H](O)C[C@]5(C)[C@@H](C6=CC(=O)OC6)CC[C@]5(O)[C@@H]4CC[C@]3(O)C2)[C@H](O)[C@H](O)[C@H]1O` [Ouabain], in assay [5], the “impairment of global growth” value was “digoxin<digitoxin<ouabain<Compound 2”. Moreover, the inhibitory constant (Ki) in assay [7] was 43000 ± 19000 nM.

Turning to `C[C@H]1O[C@@H](O[C@H]2[C@@H](O)C[C@H](O[C@H]3[C@@H](O)C[C@H](O[C@H]4CC[C@@]5(C)[C@H](CC[C@@H]6[C@@H]5CC[C@]5(C)[C@@H](C7=CC(=O)OC7)CC[C@]65O)C4)O[C@@H]3C)O[C@@H]2C)C[C@H](O)[C@@H]1O` [digitoxin], in assay [5], the “impairment of global growth” value is “digoxin<digitoxin<ouabain<Compound 2”.
